Assay results as given in patent US20050107289A1, “Anti-microbial peptides and compositions” (priority 2001, published 2005).
Converted amounts (≈) assume the structure as drawn. Marks after values point to notes of the source that are not given here. Non-standard residues stand in square brackets, D forms with d. Residues, ends and D or L forms follow the SMILES beside them.

Tests used:
[1] = system: Salmonella typhimurium ATCC 14028; assay: MIC, Salmonella typhimurium; assay type: cell-based
Description: (§1) The antimicrobial activity of the peptides was determined using a broth dilution assay essentially as descried in the guidelines of the National Committee for […] (NCCLS) [National Committee for Clinical Laboratory Standards. Methods for dilution antimicrobial susceptibility tests for bacteria that grow aerobically. Fourth edition. Approved Standard (1997). Document M7-A4. […] The microdilution method has the advantages of requiring less amount of peptide for each assay and the possibility of multiple simultaneous inoculations and was used in most studies. Several of the strains of bacteria tested are further described in Table 3.
(§2) Preparation of peptide solutions. Stock peptide solutions were prepared in 5% DMSO in aq. sucrose (9%). Determination of peptide concentrations was done by quantitative HPLC analysis using known concentrations of internal standards and/or by measuring UV absorption of tryptophane-containing peptide solutions in H2O (λ=280 εTrp: 5690). Serial 2-fold dilutions were made in the above DMSO/aq. sucrose (9%) mixture with concentrations ranging approximately 400-2 μg/ml and aliquots were dispensed in test tubes (100 μl) for the macrodilution test or in microtiter plates (20 μl) for the microdilution assays.
(§3) Inoculum preparation. […]

[2] = system: Streptococcus pneumoniea erythromycin- and ampicillin-resistant clinical isolate; assay type: cell-based, Streptococcus pneumoniae; conditions: data from MDS Panlabs
Description: as §1

[3] = Cytotoxicity to M21 melanoma cells; assay type: cell-based; conditions: human, read-out: M21 (melanoma) LD50
murine red blood cells = assay: Red blood cell hemolysis; assay type: cell-based, mouse
In short: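 Hemolysis read as A560 of supernatant, scaled between saline (0%) and 1% Triton X-100 (100%) controls; peptides were serially diluted onto 5% murine red cells in saline plus 10% FBS and incubated 30 min at 37° C.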

E. coli JM109(DE3) = assay type: cell-based, Escherichia coli; conditions: JM109
In short: (§4)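 First, peptide stocks in 5% DMSO/9% sucrose were quantified and diluted 2-fold over roughly 400-2 μg/ml. Next, overnight cultures were diluted 4000-fold to ~2.5×10^5 cfu/ml and combined with peptide. Minimum inhibitory concentrations followed NCCLS broth macro- or microdilution procedures.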

[4] = system: Enterococcus faecalis vancomycin-resistant clinical isolate; assay type: cell-based; conditions: data from MDS Panlabs
Description: as §1

[5] = system: S. aureus (MRSA) ATCC 33591; assay type: cell-based, Staphylococcus aureus
In short: as §4

[6] = system: Staphylococcus aureus ATCC25923; assay: MIC, Staphylococcus aureus ATCC25923; assay type: cell-based; conditions: data from MDS Panlabs Pharmacology Services
Description: as §1

[7] = system: vancomycin-resistant Enterococus faecalis (VRE)(ATCC 51575); assay type: cell-based, Enterococcus faecalis; set-up: key to VRE (in vitro activity): peptide concentration in μg/ml (broth dilution assay)
In short: as §4

[8] = system: Bacillus cereus ATCC 11778; assay type: cell-based
In short: as §4

[9] = system: Streptococcus pneumoniae (ATCC 6301); assay type: cell-based
In short: as §4

[10] = system: Bacillus subtilis ATCC 43223; assay: MIC, Bacillus subtilis; assay type: cell-based; conditions: data from MDS Panlabs Pharmacology Services
Description: as §1

[11] = system: Listeria monocytogenes ATCC19115; assay: MIC, Listeria monocytogenes; assay type: cell-based
Description: as §1, §2, §3

## CC(C)C[C@@H]1NC(=O)[C@@H](Cc2c[nH]c3ccccc23)NC(=O)[C@H](CCCNC(=N)N)NC(=O)[C@@H](CCC(N)=O)NC(=O)[C@H](CCCCN)NC(=O)[C@@H](Cc2c[nH]c3ccccc23)NC(=O)[C@H](CC(C)C)NC(=O)[C@@H](Cc2c[nH]c3ccccc23)NC1=O [SEQ ID NO:9, cyclo-[Lys-D-Gln-Arg-D-Trp-Leu-D-Trp-Leu-D-Trp]] (cyclo(K[dQ]R[dW]L[dW]L[dW]))
[1]
  MIC Salmonella typhimurium: >70 µg/mL
[2]
  MIC Streptococcus pneumoniea: 10^b μg/ml
[3]
  CC50: > 75 µg/mL
Murine red blood cells
  RBC Hemolysis (HD50): 40
  Red blood cell (mouse) HD50: 45^j μg/ml
E. coli JM109(DE3)
  E. coli MIC: 80 µg/mL
[4]
  MIC Enterococcus faecalis: 10^b μg/ml
[5]; ATCC 33591
  MRSA MIC: 12 µg/mL
  S. aureus (MRSA) MIC: 8 µg/mL
[5]; Table 9, media a: anti-microbial media-3 (AM-3)
  MRSA (in vitro activity): 12
[6]
  MIC Staphylococcus aureus: 3^b μg/ml
[7]; ATCC 51575
  VRE MIC: 12 µg/mL
[7]; Table 9, media a: AM-3
  VRE (in vitro activity): 12
[8]
  B. cerius MIC: 3 µg/mL
  MIC Bacillus cereus: 2 µg/mL (≈ 1.67 µM)
[9]
  S. pneum. MIC: 4 µg/mL
[10]
  MIC Bacillus subtilis: 3^b μg/ml
[11]
  MIC Listeria monocytogenes: 20 µg/mL (≈ 16.7 µM)
